We go through two compounds from US12070452B2, “Compounds targeting HSP110 protein for cancer treatment” (INSERM (Institut National de la Santé et de la Recherche …, priority 2018, dated 2024).

The target in assay [1] is T1, HSP110/Myd88 interaction (Homo sapiens, UniProt Q92598).
T1 construct: endogenous in cells
Put plainly: Immunoprecipitation of HSP110/Myd88 in DLBCL cell line. The class given is cell-based. The note with it: IP Myd88, Western Blot. An excerpt:
FIG. 10A: Immunoprecipitation (IP) analysis of HSP110 (first line), Myd88 (second line), heavy chains (third line) and actin (fourth line) in large B cell lymphoma cell lines (DLBCL).
Left part of FIG. 10A (“Inputs”): treated with (from left to right column of the left part of FIG. 10A) DMSO, compound 52 (5052), compound 33 (5033) and compound 61 (5061) (Negative control);
Middle part of FIG. 10A (“IP Myd88”): treated with (from left to right column of the middle part of FIG. 10A) DMSO, compound 52, compound 33 and compound 61 (as the negative control); Myd88 was immunoprecipitated with an antibody specifically directed against Myd88.
MyD88 was immuno-precipitated from the cell line which has been non-treated or treated with the HSP110 inhibitors.
Background: In western blotting, separated proteins are transferred to a membrane and probed.

In assay [2] the test system is CT26 cells. Put plainly: Flow cytometric analysis of cell death (Annexin V / 7-AAD) in CT26 cells. Conditions: 10 μM, 96 h. It is filed as cell-based, mouse. On the procedure:
FIG. 5A: Flow cytometric analysis of cell death in CT26 cells treated with the compound 33 (at the bottom left), compound 52 (at the bottom middle), comparative compound 61 (at the bottom right) at 10 μM during 96 h compared with Control (DMSO) (at the top left), and Cisplatin (at the top middle and top right). Live cells were double negative for 7-AAD (Y axis) and Annexin V (X axis), early apoptotic cells were positive for Annexin V, late apoptotic cells were positive for Annexin V and 7-AAD ([…]) and dead cells were positive for 7-AAD only.
FIG. 5B: Quantification of cell viability (in percentage) from flow cytometry data are represented (Control, cells, compounds 33, 52 and 61 from the left to the right bars). (Abscissa Negativity of 7-AAD; Ordinate Negativity of Annexin V).
We then analyzed cell death in CT26 cells treated with 10 μM during 96 h of compounds 33, 52 and 61 by flow cytometry. Cells were also treated with a well know anti-cancer compound, called cisplatin. Cells were marked for 7-aminoactinomycin D, which exclusively bind on death cells and for Annexin V, a well-known indicators of early stage apoptosis, thanks to its ability to bind to phosphatidylserine.
In general terms: In flow cytometry, cells or beads pass a laser one at a time.

For assay [3], the system named is phosphorylated STAT3. Put plainly: P-STAT3 level in SW480 cells (immunoblot quantification). The class given is cell-based, human. Conditions: 10 μM, 48 h, normalized by actin. On the procedure: Results for SW480 cells treated during 48 h with non-relevant antibody (called NT), compound 52, compound 33, compound 51 and comparative compound 61 at 10 μM, and sh110 cells correspond to the third fourth, fifth, sixth and last columns from the left to the right.
FIG. 3B: Quantification of P-STAT3 level (in percentage) normalized by actin. […] (Ordinate: Percentage of P-STAT3 level (scale 50)
(§1) Immunoprecipitation test were realized on human colorectal cancer cells (SW480 and HCT116 cell lines), using a control depleted in HSP110 called Sh110 and a not depleted cells in HSP110. STAT3 phosphorylation is then […] by compounds 33 and 52. Depletion of HSP110 in the negative control blocked the phosphorylation of STAT3 without affecting STAT3 overall levels (FIGS. 2 and 3).

The target in assay [4] is T2, HSP110:STAT3 complex (Homo sapiens, UniProt Q92598).
T2 construct: disrupting HSP110:STAT3 complex within the cell using human colorectal SW480 cancer cells; endogenous in cells; host or cells: SW480 cells carrying control shRNA (shCtrl); sh110 cells as HSP110-depleted control
Put plainly: Immunoprecipitation of HSP110:STAT3 complex in SW480 cells. The class given is cell-based. Conditions: SW480 shCtrl cells, 10 μM, 48 h. On the procedure: FIG. 2A: Immunoprecipitation (IP) analysis of HSP110 protein (first line), STAT3 protein (second line) compared with total Immunoglobuline (Ig) and actin in SW480 cells treated with (from left to the right column) non-relevant antibody as control (called NT a Normal rabbit IgG (sc-2027) from Santa Cruz Biotechnologies), compound 52 (related to formula (III)), compound 33 (related to formula (II)), compound 51 (related to formula (IV)) and comparative compound 61 at a concentration of 10 μM during 48 h on shCtrl cells transfected with shRNA for shRNA control (referenced ShCtrl IP:STAT3 for the five first columns) or HSP110-silencing (sh110) (referenced sh110-IP:STAT3 for the two last columns) (from the left to the right columns). Immunoprecipitation analysis of HSP110 (first line), STAT3 (second line) compared with total Ig and actin (second blot in the right) is observed with shCtrl cells transfected with shRNA for shRNA control (shCtrl) or HSP110-silencing (sh110) (left to right columns).
FIG. 2B: Quantification of HSP110:STAT3 disruption in percentage considering the total amount of HSP110 protein normalized by the signal intensity of the Ig band of FIG. 1 panel A. (Ordinate: Percentage of STAT3:HSP110 protein interaction (scale 50)). The histogram measured quantification in percentage for ShCtrl IP: STAT3 treated with Ctrl, compounds 52, 33, 51 and comparative compound 61, and for shCtrl cells transfected with shRNA for shRNA control referenced ShCtrl IP: STAT3) or HSP110-silencing (sh110) (referenced sh110-IP: STAT3) (from the left to the right column)
as §1

Assay [5] deals with T3, human protein HSP110 (Homo sapiens, UniProt Q92598).
T3 construct: DNA coding the NBD-HSP110 (from human-HSP110)
Put plainly: HSP110 anti-aggregation function (luciferase substrate test). The class given is biochemical. The note with it: human HSP110 1.5 μM with firefly luciferase, 30 min at 42° C.; read-out: IC50 of HSP110 anti-aggregating activity. The protocol:
Anti-aggregation function of HSP110 was evaluated as described by O H et al (The Journal of biological chemistry 274, 15712-15718 (1999)). The human protein HSP110 (obtained as described above) at a concentration of 1.5 μM was incubated with firefly luciferase (from Sigma—from Photinus pyralis) in reaction buffer and heated in water bath for 30 min at 42° C.
Compounds of the present invention were added in reaction buffer to achieve the indicated concentrations and the final DMSO concentration was held constant at 1%. The heated reaction was diluted 10 times into buffer containing 60% of rabbit reticulocytelysate and incubated for 2 hours. The luciferase activity was measured by diluting 5 times the solution in HEPES and adding 5 μL of the solution in luciferase substrate (50 μL of Luciferase Assay System—Promega E1501 diluted in HEPES). The bioluminescence was reading with Envision Perkin Elmer.
The percentage of activity (x) was calculated by using the following equation: x=[(A−B)/(C−B)]×100, where (A) is the luciferase luminescence in presence of compounds of the invention, (B) in absence of HSP110 and (C) in presence of DMSO (Control). The percentage of total folding HSP110-promoted (mean=36%) was calculated considering as 100% the luminescence of luciferase incubated with HSP110 without heat shock. The IC50 were calculated from the dose-response curves, which were fitted by GraphPrism (Equation: Y=100/(1+10^((Log IC50−X)*HillSlope)).

T2 sequence (Q92598 2-858 limits assumed, one chain of several): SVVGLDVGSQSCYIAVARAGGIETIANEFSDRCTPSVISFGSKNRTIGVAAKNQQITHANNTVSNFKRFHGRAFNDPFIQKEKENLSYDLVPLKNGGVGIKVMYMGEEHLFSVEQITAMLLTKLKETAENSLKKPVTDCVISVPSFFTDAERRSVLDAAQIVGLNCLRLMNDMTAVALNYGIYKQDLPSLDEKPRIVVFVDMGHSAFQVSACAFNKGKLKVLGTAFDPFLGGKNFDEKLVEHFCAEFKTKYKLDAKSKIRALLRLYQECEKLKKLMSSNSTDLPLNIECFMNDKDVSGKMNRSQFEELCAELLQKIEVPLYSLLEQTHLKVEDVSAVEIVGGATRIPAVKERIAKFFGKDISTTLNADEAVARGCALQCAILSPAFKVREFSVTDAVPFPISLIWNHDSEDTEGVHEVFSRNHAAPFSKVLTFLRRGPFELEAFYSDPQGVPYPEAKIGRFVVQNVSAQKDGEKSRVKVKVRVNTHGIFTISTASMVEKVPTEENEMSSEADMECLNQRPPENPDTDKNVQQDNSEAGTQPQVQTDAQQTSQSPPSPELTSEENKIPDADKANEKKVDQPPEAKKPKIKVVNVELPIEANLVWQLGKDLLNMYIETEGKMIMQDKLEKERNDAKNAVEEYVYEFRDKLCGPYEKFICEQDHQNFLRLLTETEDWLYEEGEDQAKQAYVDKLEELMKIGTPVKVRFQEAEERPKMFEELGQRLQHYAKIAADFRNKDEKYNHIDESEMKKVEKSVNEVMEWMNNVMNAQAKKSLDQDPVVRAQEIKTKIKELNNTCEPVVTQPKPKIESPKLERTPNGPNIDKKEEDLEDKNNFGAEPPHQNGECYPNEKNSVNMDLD
T3 sequence (Q92598 whole entry, looked up): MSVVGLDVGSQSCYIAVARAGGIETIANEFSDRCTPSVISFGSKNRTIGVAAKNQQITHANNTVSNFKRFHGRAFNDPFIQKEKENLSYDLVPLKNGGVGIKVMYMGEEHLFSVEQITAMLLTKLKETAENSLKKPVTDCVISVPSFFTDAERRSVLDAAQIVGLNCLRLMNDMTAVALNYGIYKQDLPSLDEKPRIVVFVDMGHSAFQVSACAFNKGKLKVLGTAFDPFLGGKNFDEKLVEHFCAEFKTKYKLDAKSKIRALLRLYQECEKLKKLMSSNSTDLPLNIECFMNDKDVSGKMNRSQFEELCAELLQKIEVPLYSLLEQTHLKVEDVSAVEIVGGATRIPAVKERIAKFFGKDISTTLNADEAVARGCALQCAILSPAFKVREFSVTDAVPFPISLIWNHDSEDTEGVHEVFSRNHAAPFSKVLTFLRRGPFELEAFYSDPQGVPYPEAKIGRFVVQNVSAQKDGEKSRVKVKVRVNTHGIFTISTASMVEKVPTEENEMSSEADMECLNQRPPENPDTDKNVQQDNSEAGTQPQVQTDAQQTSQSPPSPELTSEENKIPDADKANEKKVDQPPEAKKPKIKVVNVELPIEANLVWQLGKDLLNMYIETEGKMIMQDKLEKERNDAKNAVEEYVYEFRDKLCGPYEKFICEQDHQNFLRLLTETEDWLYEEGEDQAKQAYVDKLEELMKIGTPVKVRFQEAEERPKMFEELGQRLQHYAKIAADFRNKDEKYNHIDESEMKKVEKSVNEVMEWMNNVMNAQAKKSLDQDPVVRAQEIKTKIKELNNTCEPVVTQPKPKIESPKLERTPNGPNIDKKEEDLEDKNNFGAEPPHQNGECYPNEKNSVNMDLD
T1 sequence (Q92598 2-858 limits assumed): as the sequence (Q92598 2-858 limits assumed, one chain of several) above

Regarding `N#CCc1cccc(-c2cnc(Cl)c(/C=C/c3ccccc3)c2)c1` [compound 61, (E)-2-(3-(6-Chloro-5-styrylpyridin-3-yl)phenyl) acetonitrile, reference compound], in assay [1], the HSP110/Myd88 interaction entry is “does not inhibit”. For the same compound, the “cell death / apoptosis (Annexin V and 7-AAD marking)” value in assay [2] is listed as “don't seem to be marked”. This compound returned a P-STAT3 level in assay [3] of 100%. In assay [4], the “percentage of interaction of STAT3:HSP110” value is recorded as “not decrease”. In addition, the IC50 in assay [5] turned out to be 227.5 ± 1.9 µM.
As to `COc1ccc(-c2cnc(-c3cnc(-c4ccc(OC)c(OC)c4)c(C)c3)c(/C=C/c3ccccc3)c2)cc1OC` [compound 51, (E)-5,6′-Bis(3,4-dimethoxyphenyl)-5′-methyl-3-styryl-2,3′-bipyridine], the P-STAT3 level result in assay [3] is “about 50%”. Moreover, the “percentage of interaction of STAT3:HSP110” value in assay [4] is “not decrease”.

As a reminder, the IC50 is the concentration that gives 50% inhibition.
